This data set in a line: collision cross section (DTIM-MS, N2); higher = larger ion. On the procedure:
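Collision cross section (CCS) of drug and natural-product chemical standards (validation set 2, measured in this paper). Three independent measurements were made across 2 months; the value taken is their mean (avg_ccs), for the ion adduct given.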

Under “ion adduct: [M-H]-”, `C=C[C@](C)(O)CC[C@@H]1[C@@]2(C)CCCC(C)(C)[C@@H]2CC[C@@]1(C)O` [Sclareol] displayed a collision cross section of 178.93 Å².
Regarding `COC(=O)C1=CO[C@@H](O[C@@H]2O[C@H](CO)[C@@H](O)[C@H](O)[C@H]2O)[C@@H]2C(CO)=CC[C@H]12` [Geniposide], the collision cross section (ion adduct: [M-H]-) came out at 184.6 Å².
Still for that read-out and setting: in the case of `CC(C)=CCC[C@](C)(O[C@@H]1O[C@H](CO)[C@@H](O)[C@H](O)[C@H]1O)[C@H]1CC[C@]2(C)[C@@H]1[C@H](O)C[C@@H]1[C@@]3(C)CC[C@H](O)C(C)(C)[C@@H]3[C@@H](O)C[C@]12C` [Ginsenoside F1] it was 259.18 Å².
In the case of `Nc1nc(Cl)nc2c1ncn2[C@@H]1O[C@H](CO)[C@@H](O)[C@@H]1F` [Clofarabine], the collision cross section by setting is: (ion adduct: [M+H]+) 158.19 Å²; (ion adduct: [M-H]-) 162.03 Å².
Molecule `COc1c2ccoc2cc2oc(=O)ccc12` [Bergapten] came in with a collision cross section (ion adduct: [M+H]+) of 139.92 Å².
`C=C[C@H]1[C@H](O[C@@H]2O[C@H](CO)[C@@H](O)[C@H](O)[C@H]2O)OC=C(C(=O)OC)[C@H]1CC(=O)O` [Secoxyloganin] had a collision cross section (ion adduct: [M-H]-) of 190.5 Å².
Turning to `OC[C@@H](O)[C@@H](O[C@H]1O[C@H](CO)[C@@H](O)[C@H](O)[C@H]1O)[C@H](O)[C@@H](O)CO` [Maltitol], the collision cross section (ion adduct: [M-H]-) is reported as 169.57 Å².
Still for that read-out and setting: in the case of `Cc1cc(=O)oc2ccc(O)cc12` [6-Hydroxy-4-methylcoumarin] it was 135.48 Å².
In turn, `O=c1ccc2cc(O)ccc2o1` [6-Hydroxycoumarin] showed a collision cross section (ion adduct: [M+H]+) of 129.59 Å² and a collision cross section (ion adduct: [M-H]-) of 129.61 Å².
For `COc1ccc(C=Cc2cc(OC)cc(=O)o2)cc1` [yangonin], under “ion adduct: [M+H]+”, the collision cross section came to 163.31 Å².
Consider `Nc1nc(=S)c2[nH]cnc2[nH]1` [Thioguanine], for which the collision cross section by setting is: (ion adduct: [M+H]+) 132.57 Å²; (ion adduct: [M-H]-) 128.86 Å².
Molecule `COC(=O)c1cc(OC)c(O)c(OC)c1` [Methyl syringate] registered a collision cross section (ion adduct: [M-H]-) of 146.35 Å².
On to `O=c1cc(-c2ccccc2)c2ccc(O)c(O)c2o1` [7,8-Dihydroxy-4-phenylcoumarin], for which the collision cross section reads like this: (ion adduct: [M+H]+) 156.5 Å²; (ion adduct: [M-H]-) 157.01 Å².
Regarding `COc1cc2oc(-c3ccc(O)cc3)cc(=O)c2c(O)c1C1OC(CO)C(O)C(O)C1OC1OC(CO)C(O)C(O)C1O` (stereo unspecified) [Spinosin], the collision cross section is, setting by setting: (ion adduct: [M+H]+) 235.99 Å²; (ion adduct: [M-H]-) 239.41 Å².
For `O=c1ccc2ccccc2o1` [Coumarin], under “ion adduct: [M+H]+”, the collision cross section amounted to 124.69 Å².
In turn, `Nc1ccn([C@@H]2O[C@H](CO)[C@@H](O)[C@@H]2O)c(=O)n1` [Cytarabine] displayed a collision cross section (ion adduct: [M-H]-) of 151.89 Å².
With `C[C@@]12CCC3[C@@](CC[C@@H]4[C@](C)(C(=O)O)CCC[C@@]34C)(CC1=O)C2` (stereo partly specified) [Isosteviol], the collision cross section turned out to be 180.22 Å² (ion adduct: [M+H]+) and 180.18 Å² (ion adduct: [M-H]-).
For the setting “ion adduct: [M+H]+”, `COc1cc(O)cc2c1C(=O)C[C@@H](c1ccccc1)O2` [Alpinetin] yielded a collision cross section of 160.76 Å².
Consider `CC1CCC=C2C(=O)CC3OOC(C)(C)C3C21C` (stereo unspecified) [Nardosinone], for which, for the setting “ion adduct: [M-H]-”, the collision cross section came to 156.3 Å².
On the same count and under the same terms, in the case of `CCOc1cc(C=O)ccc1O` [Ethyl vanillin] it was 133.69 Å².
On to `Cc1ncc([N+](=O)[O-])n1C` [Dimetridazole], for which the collision cross section (ion adduct: [M+H]+) turned out to be 127.62 Å².
The same measure, in the same setting: then `NC(=O)c1cccnc1` [Nicotinamide], with 125.25 Å².
Under “ion adduct: [M-H]-”, `COc1ccc([C@@H]2CC(=O)c3c(O)cc(O[C@@H]4O[C@H](CO)[C@@H](O)[C@H](O)[C@H]4O[C@@H]4O[C@@H](C)[C@H](O)[C@@H](O)[C@H]4O)cc3O2)cc1O` [Neohesperidin] came in with a collision cross section of 229.5 Å².
On the same count and under the same terms, then `CC(C)=CCC[C@](C)(O)[C@H]1CC[C@]2(C)[C@@H]1[C@H](O)C[C@@H]1[C@@]3(C)CC[C@H](O)C(C)(C)[C@@H]3[C@@H](O[C@@H]3O[C@H](CO)[C@@H](O)[C@H](O)[C@H]3O)C[C@]12C` [Ginsenoside Rh1], with 266.62 Å².
As to `COc1cc(O)cc(O)c1C(=O)/C=C/c1ccccc1` [Cardamonin], the collision cross section runs as follows: (ion adduct: [M+H]+) 164.02 Å²; (ion adduct: [M-H]-) 167.35 Å².
In turn, `C=CC[C@@H]1/C=C(/C)C[C@H](C)C[C@H](OC)[C@H]2O[C@@](O)(C(=O)C(=O)N3CCCC[C@H]3C(=O)O[C@H](/C(C)=C/[C@@H]3CC[C@@H](O)[C@H](OC)C3)[C@H](C)[C@@H](O)CC1=O)[C@H](C)C[C@@H]2OC` [Tacrolimus] came in with a collision cross section (ion adduct: [M-H]-) of 281.46 Å².
In the case of `COc1ccc(-c2cc(=O)c3c(O)cc(O)cc3o2)cc1-c1c(O)cc(O)c2c(=O)cc(-c3ccc(O)cc3)oc12` [Bilobetin], the collision cross section by setting is: (ion adduct: [M+H]+) 230.49 Å²; (ion adduct: [M-H]-) 221.44 Å².
The like results for `O=c1c(-c2ccc(O)cc2)coc2cc(O[C@@H]3O[C@H](CO)[C@@H](O)[C@H](O)[C@H]3O)cc(O)c12` [Genistin] were, in that order, 207.07 Å² and 213.76 Å².
In the case of `C[C@H]1C(=O)O[C@@H]2CCN3CC=C(COC(=O)[C@](C)(O)[C@]1(C)O)[C@H]23` [Crotaline], the collision cross section (ion adduct: [M+H]+) was found to be 176.34 Å².
`CC1(C)C=Cc2c(ccc3c2OC[C@@H](c2ccc(O)cc2O)C3)O1` [Glabridin]: the collision cross section is listed as 180.63 Å² (ion adduct: [M+H]+) and 184.46 Å² (ion adduct: [M-H]-).
In turn, `COC1=CC(=O)O[C@@H](/C=C/c2ccccc2)C1` [Kawain] gave a collision cross section (ion adduct: [M+H]+) of 150.52 Å².
For the molecule `COc1cc([C@@H]2c3cc4c(cc3[C@@H](O[C@@H]3O[C@@H]5CO[C@@H](C)O[C@H]5[C@H](O)[C@H]3O)C3COC(=O)C32)OCO4)cc(OC)c1O` (stereo partly specified) [Etoposide], the collision cross section (ion adduct: [M+H]+) is listed as 250.54 Å².
As for `COc1cc(NS(C)(=O)=O)ccc1Nc1c2ccccc2nc2ccccc12` [Amsacrine], the collision cross section is, setting by setting: (ion adduct: [M+H]+) 195.94 Å²; (ion adduct: [M-H]-) 199.97 Å².
The like results for `Nc1ccn(C[C@@H](CO)OCP(=O)(O)O)c(=O)n1` [Cidofovir] were, in that order, 157.98 Å² and 158.46 Å².
For `CC(C)=C1C/C=C(\C)CC/C=C(\C)CC1=O` [Germacrone], the collision cross section (ion adduct: [M+H]+) was 149.53 Å².
In the case of `Cc1cc(O)c2c(c1)C(=O)c1cc(O)cc(O)c1C2=O` [Emodin], the collision cross section (ion adduct: [M+H]+) was determined as 156.69 Å² and the collision cross section (ion adduct: [M-H]-) is given as 155.06 Å².
The molecule `CCCCCC=CC(=O)CCc1ccc(O)c(OC)c1` [6-Shogaol] displayed a collision cross section (ion adduct: [M-H]-) of 167.21 Å².
On the same count and under the same terms, in the case of `CC(/C=C/C=C(\C)C(=O)O[C@@H]1O[C@H](CO[C@@H]2O[C@H](CO)[C@@H](O)[C@H](O)[C@H]2O)[C@@H](O)[C@H](O)[C@H]1O)=C\C=C\C=C(C)\C=C\C=C(/C)C(=O)O[C@@H]1O[C@H](CO[C@@H]2O[C@H](CO)[C@@H](O)[C@H](O)[C@H]2O)[C@@H](O)[C@H](O)[C@H]1O` [Crocin] it was 310.8 Å².
In turn, `CC1(C)CCC[C@](C)([C@H]2CC[C@]3(C)[C@@H]2[C@H](O)C[C@@H]2[C@@]4(C)CC[C@H](O)C(C)(C)[C@@H]4CC[C@]23C)O1` [Panaxadiol] returned a collision cross section (ion adduct: [M+H]+) of 218.82 Å².
`Nc1ccn([C@@H]2O[C@H](CO)[C@@H](O)C2(F)F)c(=O)n1` [Gemcitabine]: the collision cross section (ion adduct: [M+H]+) turned out to be 155.86 Å².
On to `C=CC(C)(C)c1cc(/C=C/C(=O)c2ccc(O)cc2)c(OC)cc1O` [Licochalcone A], for which the collision cross section (ion adduct: [M+H]+) is reported as 191.26 Å² and the collision cross section (ion adduct: [M-H]-) amounted to 194.56 Å².
With `CNC(=O)Oc1cccc2ccccc12` [Carbaryl], for the setting “ion adduct: [M-H]-”, the collision cross section came out at 144.36 Å².
Same read-out and setting: in the case of `CC1(C)CC[C@]2(C(=O)O)CC[C@]3(C)C(=CC[C@@H]4[C@@]5(C)C[C@@H](O)[C@H](O)C(C)(C)[C@@H]5CC[C@]43C)[C@@H]2C1` [Crategolic acid] it was 222.53 Å².
On the same count and under the same terms, then `COC(=O)/C=C/c1ccc(O)cc1` [Methyl 4-hydroxycinnamate], with 139.5 Å².
Turning to `CCC(C)(C)C(=O)O[C@H]1C[C@@H](C)C=C2C=C[C@H](C)[C@H](CC[C@@H]3C[C@@H](O)CC(=O)O3)[C@H]21` [Simvastatin], the collision cross section reads like this: (ion adduct: [M+H]+) 207.6 Å²; (ion adduct: [M-H]-) 205.74 Å².
`CC(C)=CCCC1(C)CCC2(C)C3CCC4(C)C(C)C(=O)CCC4C3(C)CCC2(C)C1` (stereo unspecified) [Shionone]: the collision cross section (ion adduct: [M+H]+) amounted to 211.34 Å².
Same read-out and setting: then `COc1ccc2ccc(=O)oc2c1` [7-Methoxycoumarin], with 131.39 Å².
For `CC(C)C1=CC2=CC[C@@H]3[C@](C)(CCC[C@@]3(C)C(=O)O)[C@H]2CC1` [Abietic acid], the collision cross section by setting is: (ion adduct: [M+H]+) 174.96 Å²; (ion adduct: [M-H]-) 185.72 Å².
Taken in the same sequence, the figures for `O=C(Nc1ccc(Cl)cc1)Nc1ccc(Cl)c(Cl)c1` [Triclocarban] were 173.83 Å² and 178.67 Å².
Taken in the same sequence, the figures for `COc1cc(C2c3cc4c(cc3C(O)C3COC(=O)C23)OCO4)cc(OC)c1O` (stereo unspecified) [4'-Demethylpodophyllotoxin] were 195.99 Å² and 197.38 Å².
Taken in the same sequence, the figures for `CC1(C)[C@@H](O[C@H]2O[C@H](C(=O)O)[C@@H](O)[C@H](O)[C@H]2OC2O[C@H](C(=O)O)[C@@H](O)[C@H](O)[C@H]2O)CC[C@]2(C)[C@H]3C(=O)C=C4[C@@H]5C[C@@](C)(C(=O)O)CC[C@]5(C)CC[C@@]4(C)[C@]3(C)CC[C@@H]12` (stereo partly specified) [Glycyrrhizic acid] were 287.67 Å² and 281.13 Å².
For the setting “ion adduct: [M-H]-”, `CN(C)NC(=O)CCC(=O)O` [Daminozide] returned a collision cross section of 135.88 Å².

Values taken from the supplement of paper PMC7455731.
